One assay addresses HLA-A*2402 (Homo sapiens, UniProt P04439, D101N/D140Y/D185E/E176V/E190D/F33S/G103R/G107R/I119L/I121M/I306V/K335N/L105A/L180Q/L300P/N151K/N90K/Q86E/Q94H/R106L/R138H/R89G/T104I/T345S/V100E/W191G/Y123F). The experiment in a line: In vitro class I HLA binding assay (fluorescence polarization competition). The note with it: allele A*2402; fluorescence polarization competition; read-out: IC50 (nM), in vitro HLA binding affinity. The essentials:
(§1)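 Cell-free competition assay: HLA heat-treated 53°C for 15 min to strip endogenous peptides, then mixed with fluorescent high-affinity control peptide and test peptides for 72 h to equilibrium. Displacement read by fluorescence polarization as percent inhibition; IC50 derived from a concentration range.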
On the technique in general: Fluorescence polarisation rises when a labelled molecule tumbles more slowly, as on binding a larger partner.

The next assay addresses HLA-A*0301 (Homo sapiens, UniProt P04439). The experiment in a line: biochemical. The format is binding. The conditions noted are these: allele A*0301, fluorescence polarization competition; for IC50: read-out: IC50 (nM), in vitro HLA binding affinity. An outline of the steps: as §1
The next assay deals with HLA-A*0101 (Homo sapiens, UniProt P04439, A114D/A174V/A182V/D101N/D185E/E176A/E190D/L180R/Q94H/R68K/S129P/T187R/V100A/V91M/W191G). The experiment in a line: biochemical. In kind it is binding. The note with it: allele A*0101, fluorescence polarization competition; for IC50: read-out: IC50 (nM), in vitro HLA binding affinity. An outline of the steps:
as §1

A further assay deals with HLA-A*0201 (Homo sapiens, UniProt P04439, D140Y/D185E/D98H/E176V/E277Q/G131W/G231S/I119V/I121R/I166T/I218V/L300P/L318F/N151K/N90K/P208A/P217A/Q86G/Q94H/R138H/R169H/T345S). The experiment in a line: In vitro class I HLA binding assay (fluorescence polarization competition). The note with it: allele A*0201; fluorescence polarization competition; read-out: IC50 (nM), in vitro HLA binding affinity. The essentials:
as §1

From article PMC8294059, “Identification and Immune Assessment of T Cell Epitopes in Five Plasmodium falciparum Blood Stage Antigens to Facilitate Vaccine Candidate Selection and Optimization” (Frontiers in Immunology, 2021) come the findings set out here.

Usually IC50 stands for the point on the concentration scale where inhibition reaches its midpoint.

Where a SMILES comes first, the peptide text is derived from it.

Regarding `N=C(N)NCCC[C@H](NC(=O)CNC(=O)[C@H](Cc1ccccc1)NC(=O)[C@@H](N)CC(N)=O)C(=O)NCC(=O)N[C@@H](CCC(N)=O)C(=O)N[C@@H](CC(N)=O)C(=O)N[C@@H](Cc1ccc(O)cc1)C(=O)N[C@@H](Cc1c[nH]c2ccccc12)C(=O)O` [AMA1_020] (H-NFGRGQNYW-OH), the IC50 on HLA-A*2402 amounted to 229 nM. Still for that read-out and setting: in the case of `CC(C)C[C@H](NC(=O)[C@@H]1CCCN1C(=O)[C@H](Cc1ccc(O)cc1)NC(=O)[C@@H](N)CCC(=O)O)C(=O)N[C@@H](Cc1c[nH]cn1)C(=O)N[C@@H](CCC(N)=O)C(=O)N[C@@H](CCC(=O)O)C(=O)N[C@@H](Cc1c[nH]cn1)C(=O)N[C@H](C(=O)N[C@@H](Cc1ccc(O)cc1)C(=O)O)[C@@H](C)O` [AMA1_052] (H-EYPLHQEHTY-OH) it was 999 nM; in that of `CSCC[C@H](NC(=O)[C@H](Cc1ccc(O)cc1)NC(=O)[C@@H](N)CC(N)=O)C(=O)NCC(=O)N[C@@H](CC(N)=O)C(=O)N1CCC[C@H]1C(=O)N[C@@H](Cc1c[nH]c2ccccc12)C(=O)N[C@H](C(=O)N[C@@H](CCC(=O)O)C(=O)O)[C@@H](C)O` [AMA1_104] (H-NYMGNPWTE-OH), 37900 nM.

Turning to `CC(C)C[C@H](NC(=O)[C@H](Cc1ccc(O)cc1)NC(=O)[C@@H](N)CCC(N)=O)C(=O)N[C@@H](CCCCN)C(=O)N[C@@H](CC(=O)O)C(=O)NCC(=O)NCC(=O)N[C@@H](Cc1ccccc1)C(=O)N[C@@H](C)C(=O)N[C@@H](Cc1ccccc1)C(=O)O` [AMA1_174] (H-QYLKDGGFAF-OH), the IC50 on HLA-A*2402 is 41.9 nM.

In the case of `CC[C@H](C)[C@H](NC(=O)[C@H](CC(=O)O)NC(=O)[C@@H](N)CCC(=O)O)C(=O)N1CCC[C@H]1C(=O)N[C@@H](Cc1c[nH]cn1)C(=O)N[C@H](C(=O)N[C@@H](CC(N)=O)C(=O)N[C@@H](CCC(=O)O)C(=O)N[C@@H](Cc1ccccc1)C(=O)O)C(C)C` [AMA1_321] (H-EDIPHVNEF-OH), the IC50 on HLA-A*2402 is 83000 nM. Still for that read-out and setting: in the case of `CC[C@H](C)[C@H](NC(=O)[C@H](CC(=O)O)NC(=O)[C@H](C)NC(=O)[C@H](Cc1ccc(O)cc1)NC(=O)[C@H](CCC(=O)O)NC(=O)[C@H](CC(=O)O)NC(=O)[C@H](CCCCN)NC(=O)[C@H](Cc1ccc(O)cc1)NC(=O)[C@@H](N)CCC(=O)O)C(=O)O` [AMA1_527] (H-EYKDEYADI-OH) it was 2100 nM; in that of `CC[C@H](C)[C@H](NC(=O)[C@@H](N)CCSC)C(=O)N[C@H](C(=O)N1CCC[C@H]1C(=O)N[C@@H](Cc1ccccc1)C(=O)N[C@@H](Cc1c[nH]cn1)C(=O)N[C@@H](CCCCN)C(=O)N[C@@H](CCCCN)C(=O)N[C@@H](Cc1ccccc1)C(=O)O)[C@@H](C)CC` [CYRPA_001] (H-MIIPFHKKF-OH), 295 nM; in that of `CC[C@H](C)[C@H](NC(=O)[C@H](Cc1ccccc1)NC(=O)[C@H](CCCCN)NC(=O)[C@H](CCCCN)NC(=O)[C@H](Cc1c[nH]cn1)NC(=O)[C@H](Cc1ccccc1)NC(=O)[C@@H]1CCCN1)C(=O)N[C@@H](CO)C(=O)N[C@@H](Cc1ccccc1)C(=O)N[C@@H](Cc1ccccc1)C(=O)O` [CYRPA_004] (H-PFHKKFISFF-OH), 35.6 nM. Same read-out and setting: for `CC[C@H](C)[C@H](N)C(=O)N[C@@H](Cc1ccc(O)cc1)C(=O)N[C@@H](CCCCN)C(=O)N[C@@H](CCCNC(=N)N)C(=O)N[C@@H](CCC(=O)O)C(=O)N[C@@H](CC(C)C)C(=O)N[C@@H](Cc1ccc(O)cc1)C(=O)N[C@@H](CC(N)=O)C(=O)N[C@H](C(=O)O)[C@@H](C)CC` [CYRPA_055] (H-IYKRELYNI-OH) the value was 86.8 nM. As to `CC[C@H](C)[C@H](NC(=O)[C@H](Cc1ccc(O)cc1)NC(=O)[C@H](CCC(=O)O)NC(=O)[C@H](CC(=O)O)NC(=O)[C@H](CC(N)=O)NC(=O)[C@H](CC(C)C)NC(=O)[C@@H](N)[C@@H](C)O)C(=O)N[C@H](C(=O)N[C@@H](CO)C(=O)N[C@@H](Cc1ccc(O)cc1)C(=O)O)C(C)C` [CYRPA_285] (H-TLNDEYIVSY-OH), the results for the IC50 at HLA-A*0301 and at HLA-A*0101 were 304000 nM and 213000 nM, respectively.

Regarding `CC(C)C[C@H](NC(=O)[C@H](Cc1c[nH]cn1)NC(=O)[C@H](CCCCN)NC(=O)[C@H](Cc1ccc(O)cc1)NC(=O)[C@H](Cc1ccc(O)cc1)NC(=O)[C@H](CC(=O)O)NC(=O)[C@H](CC(C)C)NC(=O)[C@@H](N)Cc1ccccc1)C(=O)N[C@@H](CO)C(=O)N[C@@H](Cc1ccc(O)cc1)C(=O)O` [RH5_181] (H-FLDYYKHLSY-OH), the “IC50 (nM), in vitro HLA binding affinity” value on HLA-A*0301 is given as “Non-Binder”. The IC50 at HLA-A*0101 was determined as 646 nM.

For `CC[C@H](C)[C@H](NC(=O)[C@H](CO)NC(=O)[C@@H](N)CC(N)=O)C(=O)N[C@@H](Cc1ccc(O)cc1)C(=O)N[C@@H](Cc1c[nH]cn1)C(=O)N[C@@H](CCCCN)C(=O)N[C@@H](CO)C(=O)N[C@@H](CO)C(=O)N[C@H](C(=O)N[C@@H](Cc1ccc(O)cc1)C(=O)O)[C@@H](C)O` [RH5_191] (H-NSIYHKSSTY-OH), at HLA-A*0301, the IC50 was determined as 101000 nM. Further, the “IC50 (nM), in vitro HLA binding affinity” value on HLA-A*0101 was “Non-Binder”. Consider `CC[C@H](C)[C@H](NC(=O)[C@@H](N)CO)C(=O)N[C@@H](Cc1ccc(O)cc1)C(=O)N[C@@H](Cc1c[nH]cn1)C(=O)N[C@@H](CCCCN)C(=O)N[C@@H](CO)C(=O)N[C@@H](CO)C(=O)N[C@H](C(=O)N[C@@H](Cc1ccc(O)cc1)C(=O)O)[C@@H](C)O` [RH5_192] (H-SIYHKSSTY-OH), for which the IC50 at HLA-A*0301 came to 5930 nM. Also, the “IC50 (nM), in vitro HLA binding affinity” value on HLA-A*0101 is “Non-Binder”. Take `CSCC[C@H](NC(=O)[C@H](CCSC)NC(=O)[C@@H](N)CCCCN)C(=O)N[C@@H](CC(=O)O)C(=O)N[C@@H](CCC(=O)O)C(=O)N[C@@H](Cc1ccc(O)cc1)C(=O)N[C@@H](CC(N)=O)C(=O)N[C@H](C(=O)N[C@@H](CCCCN)C(=O)N[C@@H](CCCCN)C(=O)O)[C@@H](C)O` [RH5_302] (H-KMMDEYNTKK-OH): the values for the half-inhibitory concentration (IC50) on HLA-A*0201 and on HLA-A*0301 were 511000 nM and 8480 nM, respectively. Consider `CC[C@H](C)[C@H](NC(=O)[C@H](CC(N)=O)NC(=O)[C@H](CC(C)C)NC(=O)[C@@H](N)CCCCN)C(=O)N[C@@H](Cc1c[nH]c2ccccc12)C(=O)N[C@@H](CCCNC(=N)N)C(=O)N[C@H](C(=O)N[C@@H](Cc1ccccc1)C(=O)N[C@@H](CCC(N)=O)C(=O)N[C@@H](CCCCN)C(=O)O)[C@@H](C)O` [RH5_443] (H-KLNIWRTFQK-OH), for which the IC50 on HLA-A*0301 is 2500 nM.

Take `CC(C)C[C@H](NC(=O)[C@H](CC(C)C)NC(=O)[C@H](CCC(=O)O)NC(=O)[C@H](CC(=O)O)NC(=O)[C@H](CCCCN)NC(=O)[C@H](CCC(N)=O)NC(=O)[C@H](Cc1ccccc1)NC(=O)[C@@H](NC(=O)[C@@H](N)CCCNC(=N)N)[C@@H](C)O)C(=O)N[C@@H](CCCCN)C(=O)O` [RH5_448] (H-RTFQKDELLK-OH): the IC50 at HLA-A*0301 stood at 24200 nM. On the same count and under the same terms, for `C[C@H](N)C(=O)N[C@H](C(=O)N[C@@H](CS)C(=O)N[C@@H](CCCCN)C(=O)N[C@@H](Cc1ccc(O)cc1)C(=O)NCC(=O)N[C@@H](Cc1ccccc1)C(=O)N[C@@H](CC(N)=O)C(=O)N[C@@H](CCCCN)C(=O)O)[C@@H](C)O` [RIPR_0266] (H-ATCKYGFNK-OH) the value was 4750 nM.

For `CC(C)C[C@H](NC(=O)[C@H](CO)NC(=O)[C@H](CCC(=O)O)NC(=O)[C@@H](NC(=O)[C@@H](NC(=O)[C@H](Cc1ccc(O)cc1)NC(=O)[C@H](CCCCN)NC(=O)[C@H](CC(C)C)NC(=O)[C@@H](N)CCCCN)C(C)C)[C@@H](C)O)C(=O)N[C@@H](CCCCN)C(=O)O` [RIPR_0425] (H-KLKYVTESLK-OH), the half-maximal inhibitory concentration (IC50) on HLA-A*0301 turned out to be 3340 nM. Still for that read-out and setting: for `CC[C@H](C)[C@H](NC(=O)[C@H](CC(=O)O)NC(=O)[C@@H]1CCCN1C(=O)[C@H](CC(C)C)NC(=O)[C@@H](NC(=O)[C@@H](N)CO)[C@@H](C)CC)C(=O)N[C@@H](CC(N)=O)C(=O)N[C@@H](CCCCN)C(=O)N[C@@H](CO)C(=O)N[C@@H](CCCCN)C(=O)O` [RIPR_0500] (H-SILPDINKSK-OH) the value was 12700 nM.

For the molecule `C[C@@H](O)[C@H](NC(=O)[C@@H](N)CO)C(=O)N[C@@H](CS)C(=O)N[C@@H](Cc1ccc(O)cc1)C(=O)NCC(=O)N[C@@H](CC(N)=O)C(=O)N[C@@H](CCCNC(=N)N)C(=O)N[C@@H](Cc1ccccc1)C(=O)N[C@@H](CC(N)=O)C(=O)N[C@@H](Cc1ccc(O)cc1)C(=O)O` [RIPR_0648] (H-STCYGNRFNY-OH), at HLA-A*0301, the “IC50 (nM), in vitro HLA binding affinity” value is on record as “Non-binder”. Also, the IC50 on HLA-A*0101 stood at 54000 nM. Regarding `CC(C)[C@H](NC(=O)[C@@H](N)CS)C(=O)N[C@@H](CS)C(=O)N[C@H](C(=O)N[C@@H](Cc1ccc(O)cc1)C(=O)N[C@@H](CC(N)=O)C(=O)N[C@@H](Cc1ccc(O)cc1)C(=O)N[C@@H](Cc1ccc(O)cc1)C(=O)N[C@@H](CCCCN)C(=O)N[C@@H](CCCCN)C(=O)O)[C@@H](C)O` [RIPR_0924] (H-CVCTYNYYKK-OH), the concentration for half-maximal inhibition (IC50) on HLA-A*0301 stood at 14400 nM. Take DLMNRTFKK [RH5_294]: the “IC50 (nM), in vitro HLA binding affinity” value at HLA-A*0301 is “Non-Binder”.

In the case of LSVKSKNLNK [RH5_369], on HLA-A*0301, the “IC50 (nM), in vitro HLA binding affinity” value is “Non-Binder”.

Consider NVNFLQYHFK [RH5_141], for which the “IC50 (nM), in vitro HLA binding affinity” value on HLA-A*0301 is recorded as “Non-Binder”.

Consider PSHNSFIKK [RH5_101], for which the “IC50 (nM), in vitro HLA binding affinity” value on HLA-A*0301 is recorded as “Non-Binder”. As for RTFKKMMDEY [RH5_298], the “IC50 (nM), in vitro HLA binding affinity” value on HLA-A*0301 and at HLA-A*0101 was “Non-Binder” each time.
